Test results from patent EP0471358B1, “Fluoroethylcamptothecin derivatives” (KYORIN PHARMACEUTICAL CO., LTD., priority 1990, dated 1992).

Test system: P388 leukemia
Experiment: Antineoplastic effect for P388 leukemia mice (survival, T/C)
Type: in vivo, CDF₁ mice
Conditions: dosed to the abdominal cavity 1, 5 and 9 days after transplantation of 10⁶ P388 cells, average survival days of dosed vs non-dosed group
Protocol: P388 cells of 10⁶ in number were transplanted into abdominal cavity of CDF₁ mice of approximately 9 week-age (female, Non-dosed group: 5 - 8 mice, group dosed with the test compound: 1 - 5 mice). One, five, and nine days after the transplantation, the test compound which was dissolved or suspended in 1% Tween 80 (Kanto Chemical Inc.)/physiological saline was dosed to the abdominal cavity. The antineoplastic effect of the test compounds are shown by the T/C value (%) derived from the formula below. (T)/(C)(%) =(Average survival days of dosed group)/(Average survival days of non-dosed group)x 100 [formula]

SMILES | T/C (%) (Total dose 30 mg/kg) | T/C (%) (Total dose 20 mg/kg)
Cc1c2c(nc3ccccc13)-c1cc3c(c(=O)n1C2)COC(=O)C3(O)CCF (stereo not shown) [Example 41, 4-[2-fluoroethyl)-4-hydroxy-11-methyl-1H-pyrano[3',4':6,7]indolizino[1,2-b]quinoline-3,14(4H,12H)-dione] | 386 | 
O=C1OCc2c(cc3n(c2=O)Cc2c-3nc3ccc(Cl)c4c3c2CCC4)C1(O)CCF (stereo not shown) [Example 24, 4-chloro-9-(2-fluoroethyl)-2,3-dihydro-9-hydroxy-1H,12H-benzo[d,e]pyrano[3',4':6,7]indolizino[1,2-b]quinoline-10,13(9H,15H)-dione] |  | 385
CCc1ccc2nc3c(c(CC)c2c1)Cn1c-3cc2c(c1=O)COC(=O)C2(O)CCF (stereo not shown) [Example 25, 9,11-diethyl-4-(2-fluoroethyl)-4-hydroxy-1H-pyrano[3',4':6,7]indolizino[1,2-b]quinoline-3,14(4H,12H)-dione] | 345 | 
CC[C@@]1(O)C(=O)OCc2c1cc1n(c2=O)Cc2cc3ccccc3nc2-1 [Camptothecin] |  | 218
CCc1c2c(nc3ccc(C)cc13)-c1cc3c(c(=O)n1C2)COC(=O)C3(O)CCF (stereo not shown) [Example 11, 11-ethyl-4-(2-fluoroethyl)-4-hydroxy-9-methyl-1H-pyrano[3',4':6,7]indolizino[1,2-b]quinoline-3,14(4H,12H)-dione] |  | 483
CCc1c2c(nc3ccc([N+](=O)[O-])cc13)-c1cc3c(c(=O)n1C2)COC(=O)C3(O)CCF (stereo not shown) [Example 16, 11-ethyl-4-(2-fluoroethyl)-4-hydroxy-9-nitro-1H-pyrano[3',4':6,7]indolizino[1,2-b]quinoline-3,14(4H,12H)-dione] |  | 345
CCOc1ccc2nc3c(c(CC)c2c1)Cn1c-3cc2c(c1=O)COC(=O)C2(O)CCF (stereo not shown) [Example 26, 9-ethoxy-11-ethyl-4-[2-fluoroethyl)-4-hydroxy-1H-pyrano[3',4':6,7]indolizino[1,2-b]quinoline-3,14(4H,12H)-dione] | 583 | 
